{
  "source": "patent US9428773B2",
  "about": "“Methods of producing acetoin and 2,3-butanediol using photosynthetic microorganisms” (The Regents of the University of California, priority 2012, dated 2016)",
  "key": {"S. elongatus [1]": {"system": "S. elongatus", "assay": "growth of S. elongatus over 72 h in the presence of 23BD or acetoin (toxicity)", "procedure": "(§1) Unless otherwise specified, S. elongatus strains were cultured in BG-11 medium (45) with the addition of 50 mM NaHCO3. Cells were grown at 30° C. with rotary shaking (100 rpm) and light (55 μE s^−1 m^−2) provided by four 86 cm 20 W fluorescent tubes 5 cm above the cell cultures. Cell growth was monitored by measuring OD730.\n(§2) To evaluate acetoin and 23BD toxicity, we tested the growth of S. elongatus over 72 h in the presence of 23BD or acetoin."}, "S. elongatus [2]": {"system": "S. elongatus", "conditions": "cited from earlier work"}, "S. elongatus [3]": {"system": "S. elongatus", "procedure": "as §1, §2"}},
  "data": [
    {"molecule": "CC(=O)C(C)O", "note": "(centres unmarked) [acetoin]", "values": [
      {"measurement": "decrease of growth of S. elongatus", "setting": "S. elongatus [1]; 0.2 g/L acetoin, 72 h", "value": "approximately 50%"},
      {"measurement": "concentration at which growth of S. elongatus stopped", "setting": "S. elongatus [1]; 72 h", "value": 1.0, "unit": "g/L"},
      {"measurement": "concentration above which toxic in S. elongatus", "setting": "S. elongatus [1]; FIG. 2A", "value": "above 0.1 g/L"}
    ]},
    {"molecule": "CC(C)C=O", "note": "[isobutyraldehyde]", "values": [
      {"measurement": "concentration that prevents growth of S. elongatus", "setting": "S. elongatus [2]", "value": 1, "unit": "g/L"}
    ]},
    {"molecule": "CC(O)C(C)O", "note": "(centres unmarked) [23BD, 2,3-butanediol]", "values": [
      {"measurement": "growth of S. elongatus in the presence of 10 g/L 23BD", "setting": "S. elongatus [3]", "value": "barely inhibited"},
      {"measurement": "growth of S. elongatus in the presence of 30 g/L 23BD", "setting": "S. elongatus [3]", "value": "still exhibited growth"},
      {"measurement": "toxicity in S. elongatus (in words)", "setting": "S. elongatus [3]", "value": "low toxicity"}
    ]},
    {"molecule": "CC(C)CO", "note": "[isobutanol]", "values": [
      {"measurement": "concentration that prevents growth of S. elongatus", "setting": "S. elongatus [2]", "value": 1, "unit": "g/L"}
    ]}
  ]
}
